The values below come from PubChem BioAssay (NCI).

Where “and” joins values, the source holds several entries; their conditions need not be identical. Identical values can stand only once.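 The compound was tested at five concentrations on cells cultured in 96-well plates, with a 48-hour exposure period. GI50 = concentration required for 50% inhibition of growth. TGI: concentration producing complete growth inhibition.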

This test has as its system MDA-MB-468 breast. As to the kind of experiment: NCI-60 cell line screen, 48 h.

As to `CCOC(=O)c1noc2c1CCc1c-2cn(Cc2ccc(OC)cc2)c1-c1cc(OC)c(OC)c(OC)c1`, the GI50 is 5.62 µM and the TGI was greater than 100 µM.
The like results for `CCCCn1c(=O)[nH]c(N)c([C@@H]2c3c([nH]c(=O)n(CCCC)c3=O)Oc3ccc4ccccc4c32)c1=O` were, in that order, 13.4 µM and 33.4 µM.
For the compound `Nc1c(C(=O)Nc2cccc(Cl)c2)sc2nc3c(cc12)C(=O)CCC3`, the GI50 is 0.0879 µM and the TGI is 1.3 µM.
Consider `CC(C)=CCc1cc2c(cc1O)C1=C(C(=O)C3=C(NCCS3(=O)=O)C1=O)C(C=C(C)C)O2` (stereo unspecified), for which the GI50 was 3.27 µM and the TGI turned out to be 12.8 µM.
The like results for `CCC(=C(c1ccc(OCCN2CCCCC2)cc1)c1ccc(OCCN2CCCCC2)cc1)c1ccc(Cl)cc1` were, in that order, 3.33 µM and greater than 16.7 µM.
The like results for `CNC(=O)Oc1cc(C(C)C)ccc1Sc1ccc(C(C)C)cc1OC(=O)NC` were, in that order, 2.34 µM and 9.89 µM.
For `N#CC1=C(N)Oc2c(sc3c(Br)cccc23)C1c1ccc([N+](=O)[O-])cc1` (stereo unspecified), the GI50 was 0.318 µM and the TGI turned out to be 7.27 µM.
The like results for `CCN1CCN(CCC(=O)Nc2cccc(-n3cc(-c4ccncc4)c(-c4ccc(Cl)c(OC)c4)n3)c2)CC1` were, in that order, 0.325 µM and 1.41 µM.
The like results for `O=C(/C=C\c1ccc(O)c(O)c1)c1ccccc1O` were, in that order, 2.98 µM and 16.7 µM.
The like results for `Cn1cc(C2=C(c3ccsc3)C(=O)NC2=O)c2ccccc21` were, in that order, greater than 22.3 µM and greater than 25 µM.
As for `COc1ccc2c(c1)[C@@H](NC(C)=O)CCc1cc(OC)c(OC)c(OC)c1-2`, the GI50 was 0.0698 µM and the TGI was greater than 100 µM.
The like results for `O=C1C=C(Nc2ccccc2)c2ccccc2C1=O` were, in that order, 2.04 µM and 5.94 µM.
The like results for `CCN(Cc1ccc(OC)cc1)c1ccc(CO)c(Cl)c1` were, in that order, 0.0167 µM and 0.0413 µM.
The like results for `CC(=O)/C(=C\c1ccc(Cl)cc1)c1ccccc1` were, in that order, 0.0361 µM and greater than 100 µM.
For `COC(=O)c1cc2ccc(O)c(O)c2cn1`, the GI50 was 14.1 µM and the TGI amounted to 27.2 µM.
The like results for `Cn1ncnc1[C@@H]1c2n[nH]c(=O)c3cc(F)cc(c23)N[C@H]1c1ccc(F)cc1` were, in that order, greater than 100 µM and greater than 100 µM.
The like results for `CCOc1ccc(N(C)c2ccc(/C=C/C3=[N+](C)c4ccccc4C3(C)C)cc2)cc1` were, in that order, 0.161 µM and 1.03 µM.
The like results for `CN1C(=O)C(c2c[nH]c3ccccc23)=C(c2c[nH]c3ccccc23)C1=O` were, in that order, 5.12 µM and 19 µM.
With `COc1ccc(C2=NN(C(N)=S)C(c3ccc4c(c3)OCO4)C2)cc1` (stereo unspecified), the GI50 was 2.68 µM and the TGI came to 11 µM.
Regarding `O=c1[nH]c2ccccc2n1C1CCNCC1`, the GI50 is greater than 100 µM and the TGI was greater than 100 µM.
As for `Cn1cc(-c2ccc3nc(-c4ccc(CC(=O)Nc5cc(C(C)(C)C)no5)cc4)cnc3c2)cn1`, the GI50 is 0.0702 µM and the TGI was greater than 3 µM.
In the case of `COc1ccc(-c2nc3sc(-c4cc(OC)c(OC)c(OC)c4)nn3c2/C=C2/C(=O)Nc3ccc(F)cc32)cc1`, the GI50 was 2.53 µM and the TGI turned out to be 7.88 µM.
The like results for `C/C(=C\C(=O)O[C@H]1[C@@H]2[C@H](C)CC[C@H]2[C@]2(C)O[C@@]1(C1CCCCC1)C[C@H]2OC(=O)CO)c1ccccc1` were, in that order, 6.7 µM and 13.4 µM.
The like results for `CC1(C)N=C(N)N=C(N)N1c1ccc(OCCCNC(=O)Nc2ccc(S(=O)(=O)F)cc2)c(Cl)c1` were, in that order, 0.818 µM and 29.1 µM.
The like results for `CC(C)=CC[C@@H]1CC2(CC=C(C)C)C(=O)C(OC3(C(=O)c4ccccc4)C(=O)C4(CC=C(C)C)C[C@@H](CC=C(C)C)C(C)(C)C(CC=C(C)C)(C4=O)C3=O)(C(=O)c3ccccc3)C(=O)C(CC=C(C)C)(C2=O)C1(C)C` (stereo partly specified) were, in that order, 1.23 µM and 3.28 µM.
For the compound `CC(Nc1ncnc2ccc(-c3cnc(N)nc3)cc12)c1ccccc1` (stereo unspecified), the GI50 is 1.17 µM and the TGI stood at 4.03 µM.
Take `O=S(=O)(NCCCNc1cc(-c2cn(-c3ccccc3)nc2-c2cccc(O)c2)ccn1)c1ccc(C(F)(F)F)cc1`: the GI50 is 1.8 µM and the TGI worked out at 5.55 µM.
As to `Sc1cccc2cccnc12`, the GI50 is 2.71 µM and the TGI worked out at 15.6 µM.
For the compound `COC(=O)c1c2c(c(C)[n+]([O-])c1C)C(=O)C(NCc1ccc(OC)cc1)=CC2=O`, the GI50 is 1.27 µM and the TGI was 3.06 µM.
The like results for `O=C(CCCc1ccc(N(CCCl)CCCl)cc1)NCc1ccccc1` were, in that order, 2.75 µM and 10.3 µM.
The like results for `COc1cc2cc(NCc3cccc(Cl)c3)nc(C)c2cc1OC` were, in that order, 4.06 µM and 24.3 µM.
The like results for `ClC1=C(Cl)C(Cl)(C2(Cl)C(Cl)=C(Cl)C(Cl)=C2Cl)C(Cl)=C1Cl` were, in that order, 0.334 µM and 1.42 µM.
On to `Cc1[nH]nc2ccc(-c3nc4cnc(N5CCN(C)CC5)cn4c3Nc3ccc(F)cc3Br)cc12`, for which the GI50 is 1.57 µM and the TGI worked out at 3.31 µM.
The like results for `Nc1ccc(/C=C/c2ccc3ncccc3c2)cc1` were, in that order, greater than 100 µM and greater than 100 µM.
On to `COC(=O)[C@@H](C)C[C@H](Cc1ccccc1)NC(=O)c1nc([C@@H](C[C@H](C(C)C)N(C)C(=O)[C@@H](NC(=O)[C@H]2C[C@H](O)CCN2C)C(C)C)OC(C)=O)sc1C(C)C`, for which the GI50 is less than 0.00111 µM.
Regarding `COC(=O)N[C@H]1CCc2cc(OC)c(OC)c(OC)c2-c2ccc(SC)c(=O)cc21`, the GI50 is less than 0.01 µM and the TGI was greater than 100 µM.
In the case of `CC(C)=CCC/C(C)=C/CC/C(C)=C/CSC[C@H](NC(=O)CCCCCN1CCN(C)CC1)C(=O)NC1CCCCCC1`, the GI50 is 2.06 µM and the TGI is 4.89 µM.
Take `O=C1NC(=O)C(c2c[nH]c3ccccc23)=C1c1c[nH]c2ccccc12`: the GI50 is 8.28 µM and the TGI is greater than 25 µM.
Regarding `O=[N+]([O-])c1ccc(C2=NCCO2)cc1`, the GI50 is greater than 100 µM and the TGI is greater than 100 µM.
For `O=C(NCc1cn(Cc2cccc(Oc3ccccc3)c2)nn1)c1cccnc1Nc1ccc(F)cc1`, the GI50 was 5.17 µM and the TGI is greater than 100 µM.
As to `COc1cccc2c1nc(C(F)F)n2-c1nc(-c2ccc(NS(=O)(=O)CCN(C)C)cc2)nc(N2CCOCC2)n1`, the GI50 was 0.0711 µM and the TGI amounted to 0.492 µM.
The like results for `C[C@@H]1CN2[C@H]3[C@@H]1CC[C@]31CCC(=O)O[C@]1(C)[C@H]1CC[C@H]3CCC=C3[C@@H]12` were, in that order, greater than 30 µM and greater than 30 µM.
Consider `CN1CCN(Cc2ccc(NC(=O)c3cncc(C#Cc4cnc(N)c5ncccc45)c3)cc2C(F)(F)F)CC1`, for which the GI50 is 0.368 µM and the TGI is 1.68 µM.
The like results for `C=CCc1cccc(C=O)c1O` were, in that order, greater than 100 µM and greater than 100 µM.
Turning to `N#CCCNc1nonc1-c1nc2ccccc2n1CC(=O)c1ccc(N)cc1`, the GI50 was 0.0168 µM and the TGI was found to be 0.0683 µM.
Consider `Cc1ccc(NC(=O)c2ccc(CN3CCN(C)CC3)cc2)cc1Nc1nc(-c2cccnc2)cs1`, for which the GI50 is 2.98 µM and 2.62 µM; the TGI was 15.3 µM and > 10 µM.
